Experimental data: US20240409585A1, “MACROCYCLIC IMMUNOMODULATORS” (priority 2021, published 2024)
Like-named read-outs stand apart in the source and are kept apart here. Numbered stars: 1 amine (or outer) side, 2 acyl side, 3 side chain; on linkers, the order of the positions; unused ones are H or OH. Bridge positions count the residues as written; N and C are the ends. Square brackets hold non-standard residues; d marks the D form. Peptide text beside a SMILES is read from it. * marks the point of attachment. Bip(4'-NHAc) = CC(=O)Nc1ccc(-c2ccc(C[C@H](N)C(=O)O)cc2)cc1; Phe(3-CH2NH2) = O=C([C@H](Cc1cccc(CN[*:3])c1)N[*:1])[*:2]; Phe(3-CF3) = N[C@@H](Cc1cccc(C(F)(F)F)c1)C(=O)O; Ala(morpholin-4-yl) = N[C@@H](CN1CCOCC1)C(=O)O; Phe(4-CONH2) = NC(=O)c1ccc(C[C@H](N)C(=O)O)cc1; Phe(4-COOH) = N[C@@H](Cc1ccc(C(=O)O)cc1)C(=O)O; X5 = CS(=O)(=O)NC(=O)C[C@H](N[*:1])C(=O)[*:2]; Bip = N[C@@H](Cc1ccc(-c2ccccc2)cc1)C(=O)O; Abu(3R-NH2) = C[C@@H](N)[C@H](N)C(=O)O; Phe(3-Me) = Cc1cccc(C[C@H](N)C(=O)O)c1; Abu(3S-NH2) = C[C@H](N)[C@H](N)C(=O)O; Val(3-OH) = CC(C)(O)[C@H](N)C(=O)O; hPhe = N[C@@H](CCc1ccccc1)C(=O)O; Aad = N[C@@H](CCCC(=O)O)C(=O)O; Cha = N[C@@H](CC1CCCCC1)C(=O)O; aThr = C[C@H](O)[C@H](N)C(=O)O; hSer = N[C@@H](CCO)C(=O)O; Carboxymethyl = O=C(O)C*; NMeA = CN[C@@H](C)C(=O)O; Nle = CCCC[C@H](N)C(=O)O; Orn = NCCC[C@H](N)C(=O)O; Dab = NCC[C@H](N)C(=O)O

Target: T1, Alexa fluor-647 labeled human PD-L1-Ig binding to Jurkat cell line over-expressing human PD-1 (Homo sapiens, UniProt Q15116)
T1 construct: expressed in transfected cells; host or cells: Jurkat
T1 sequence (Q15116 25-288): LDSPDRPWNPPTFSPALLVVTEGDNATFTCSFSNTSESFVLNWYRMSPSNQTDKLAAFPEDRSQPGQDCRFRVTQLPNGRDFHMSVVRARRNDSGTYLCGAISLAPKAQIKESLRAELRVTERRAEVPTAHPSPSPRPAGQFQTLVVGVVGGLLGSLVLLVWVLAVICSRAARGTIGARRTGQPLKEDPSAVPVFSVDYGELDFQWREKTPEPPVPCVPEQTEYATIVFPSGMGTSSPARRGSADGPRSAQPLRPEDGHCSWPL
Test: Jurkat-PD-1 Cell Binding High-Content Screening Assay (CBA): Method 3 (Alexa fluor-647 labeled PD-L1-Ig)
Settings: Jurkat-PD-1 cells, Alexa fluor-647 labeled PD-L1-Ig 177 nM
Method in brief: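 Jurkat cells over-expressing human PD-1 in RPMI/10% FCS were preincubated 2 h at 37 °C with compound, then exposed 1 h to Alexa fluor-647 labeled human PD-L1-Ig (177 nM final). Cells fixed in 4% paraformaldehyde with Hoechst 33342 and binding quantified by high-content imaging.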

[1] = head μM, read-out: CBA Method 3 μM

Cc1cccc(C[C@@H]2NC(=O)[C@H](CC(=O)O)NC(=O)[C@H](Cc3ccc(C(=O)O)cc3)NC(=O)[C@H](CN3CCOCC3)NC(=O)CSC[C@@H](C(=O)N[C@@H](CCN)C(N)=O)NC(=O)[C@H](CCC(=O)O)NC(=O)[C@H](C(C)C)NC(=O)[C@H](CC3CCCCC3)NC(=O)[C@H](Cc3cnc[nH]3)NC(=O)[C@@H](CC(C)C)NC(=O)[C@H](C)N(C)C(=O)[C@H](Cc3ccc(C(=O)O)cc3)NC(=O)[C@H](Cc3ccc(-c4ccccc4)cc3)NC(=O)[C@H](Cc3ccc(C(=O)O)cc3)NC2=O)c1 [Example 5254] ({CH2CO}-[Ala(morpholin-4-yl)][Phe(4-COOH)]D[Phe(3-Me)][Phe(4-COOH)][Bip][Phe(4-COOH)][NMeA][dL]H[Cha]VEC[Dab]-NH2; thioether N-14)
IC50 (nM, read-out: CBA Method 3): 1.3 nM

CC(=O)Nc1ccc(-c2ccc(C[C@@H]3NC(=O)[C@H](Cc4cccc(C(F)(F)F)c4)NC(=O)[C@H](CC(=O)NS(C)(=O)=O)NC(=O)[C@H](Cc4ccc(C(N)=O)cc4)NC(=O)[C@H]([C@H](C)O)NC(=O)CSC[C@@H](C(=O)N[C@@H](CCN)C(N)=O)NC(=O)[C@H](CC(N)=O)NC(=O)[C@H](C(C)C)NC(=O)[C@H](CC4CCCCC4)NC(=O)[C@H](CCN)NC(=O)[C@@H](CC(C)C)NC(=O)[C@H](C)N(C)C(=O)[C@H](Cc4ccc(C(N)=O)cc4)NC(=O)[C@H](Cc4ccc(-c5ccccc5)cc4)NC3=O)cc2)cc1 [Example 5115] ({CH2CO}-[aThr][Phe(4-CONH2)][X5][Phe(3-CF3)][Bip(4'-NHAc)][Bip][Phe(4-CONH2)][NMeA][dL][Dab][Cha]VNC[Dab]-NH2; thioether N-14)
IC50 [1]: 280 nM

Cc1cccc(C[C@@H]2NC(=O)[C@H](CC(=O)O)NC(=O)[C@H](Cc3ccc(O)cc3)NC(=O)[C@H](CN3CCOCC3)NC(=O)CSC[C@@H](C(=O)N[C@@H](CCN)C(N)=O)NC(=O)[C@H](CCC(=O)O)NC(=O)[C@H](CCO)NC(=O)[C@H](CC3CCCCC3)NC(=O)[C@H](CCN)NC(=O)[C@@H](CC(C)C)NC(=O)[C@H](C)N(C)C(=O)[C@H](CCC(N)=O)NC(=O)[C@H](Cc3ccc(-c4ccccc4)cc3)NC(=O)[C@H](Cc3ccc(OCC(=O)O)cc3)NC2=O)c1 [Example 5261] ({CH2CO}-[Ala(morpholin-4-yl)]YD[Phe(3-Me)]Y(Carboxymethyl)[Bip]Q[NMeA][dL][Dab][Cha][hSer]EC[Dab]-NH2; thioether N-14)
IC50 [1]: 60 nM

CC(C)C[C@H]1NC(=O)[C@H](C)N(C)C(=O)[C@H](CCC(N)=O)NC(=O)[C@H](Cc2ccc(-c3ccccc3)cc2)NC(=O)[C@H](CCc2ccccc2)NC(=O)[C@H](Cc2cccc(C(F)(F)F)c2)NC(=O)[C@H](CC(=O)O)NC(=O)[C@H](Cc2ccc(OCC(=O)O)cc2)NC(=O)[C@H]([C@@H](C)N)NC(=O)CSC[C@@H](C(=O)N[C@@H](CCN)C(N)=O)NC(=O)[C@H](CO)NC(=O)[C@H](C(C)(C)O)NC(=O)[C@H](CC2CCCCC2)NC(=O)[C@H](CCN)NC1=O [Example 5227] ({CH2CO}-[Abu(3R-NH2)]Y(Carboxymethyl)D[Phe(3-CF3)][hPhe][Bip]Q[NMeA][dL][Dab][Cha][Val(3-OH)]SC[Dab]-NH2; thioether N-14)
IC50 (nM, read-out: CBA Method 3): 1.5 nM

Cc1cccc(C[C@@H]2NC(=O)[C@H](CC(=O)O)NC(=O)[C@H](Cc3ccc(OCC(=O)O)cc3)NC(=O)[C@H](CC3CCCCC3)NC(=O)CSC[C@@H](C(=O)N[C@@H](CCN)C(N)=O)NC(=O)[C@H](CCCN)NC(=O)[C@H](C(C)C)NC(=O)[C@H](CCN)NC(=O)[C@H](CCN)NC(=O)[C@@H](CC(C)C)NC(=O)[C@H](C)N(C)C(=O)[C@H](CCC(N)=O)NC(=O)[C@H](Cc3ccc(-c4ccccc4)cc3)NC(=O)[C@H](Cc3ccc(C(=O)O)cc3)NC2=O)c1 [Example 5205] ({CH2CO}-[Cha]Y(Carboxymethyl)D[Phe(3-Me)][Phe(4-COOH)][Bip]Q[NMeA][dL][Dab][Dab]V[Orn]C[Dab]-NH2; thioether N-14)
IC50 [1]: 160 nM

CC(=O)Nc1ccc(-c2ccc(C[C@@H]3NC(=O)[C@H](Cc4cccc(C(F)(F)F)c4)NC(=O)[C@H](CC(=O)O)NC(=O)[C@H](Cc4ccc(C(=O)O)cc4)NC(=O)[C@H]([C@H](C)N)NC(=O)CSC[C@@H](C(=O)N[C@@H](CCN)C(N)=O)NC(=O)[C@H](CC(N)=O)NC(=O)[C@H](C(C)C)NC(=O)[C@H](CC4CCCCC4)NC(=O)[C@H](CCN)NC(=O)[C@@H](CC(C)C)NC(=O)[C@H](C)N(C)C(=O)[C@H](Cc4ccc(C(N)=O)cc4)NC(=O)[C@H](Cc4ccc(-c5ccccc5)cc4)NC3=O)cc2)cc1 [Example 5109] ({CH2CO}-[Abu(3S-NH2)][Phe(4-COOH)]D[Phe(3-CF3)][Bip(4'-NHAc)][Bip][Phe(4-CONH2)][NMeA][dL][Dab][Cha]VNC[Dab]-NH2; thioether N-14)
IC50 (nM, read-out: CBA Method 3): 4.4 nM

CC(=O)Nc1ccc(-c2ccc(C[C@@H]3NC(=O)[C@H](Cc4cccc(C(F)(F)F)c4)NC(=O)[C@H](CC(=O)O)NC(=O)[C@H](Cc4ccc(C(=O)O)cc4)NC(=O)[C@H]([C@@H](C)N)NC(=O)CSC[C@@H](C(=O)N[C@@H](CCN)C(N)=O)NC(=O)[C@H](CCC(=O)O)NC(=O)[C@H](C(C)C)NC(=O)[C@H](CC4CCCCC4)NC(=O)[C@H](CCN)NC(=O)[C@@H](CC(C)C)NC(=O)[C@H](C)N(C)C(=O)[C@H](Cc4ccc(C(=O)O)cc4)NC(=O)[C@H](Cc4ccc(-c5ccccc5)cc4)NC3=O)cc2)cc1 [Example 5160] ({CH2CO}-[Abu(3R-NH2)][Phe(4-COOH)]D[Phe(3-CF3)][Bip(4'-NHAc)][Bip][Phe(4-COOH)][NMeA][dL][Dab][Cha]VEC[Dab]-NH2; thioether N-14)
IC50 [1]: 40 nM

CC(=O)Nc1ccc(-c2ccc(C[C@@H]3NC(=O)[C@H](Cc4cccc(C(F)(F)F)c4)NC(=O)[C@H](CC(=O)O)NC(=O)[C@H](Cc4ccc(C(=O)O)cc4)NC(=O)[C@H]([C@H](C)N)NC(=O)CSC[C@@H](C(=O)N[C@@H](CCN)C(N)=O)NC(=O)[C@H](CCC(=O)O)NC(=O)[C@H](C(C)C)NC(=O)[C@H](CC4CCCCC4)NC(=O)[C@H](CCN)NC(=O)[C@@H](CC(C)C)NC(=O)[C@H](C)N(C)C(=O)[C@H](Cc4ccc(C(N)=O)cc4)NC(=O)[C@H](Cc4ccc(-c5ccccc5)cc4)NC3=O)cc2)cc1 [Example 5118] ({CH2CO}-[Abu(3S-NH2)][Phe(4-COOH)]D[Phe(3-CF3)][Bip(4'-NHAc)][Bip][Phe(4-CONH2)][NMeA][dL][Dab][Cha]VEC[Dab]-NH2; thioether N-14)
IC50 (nM, read-out: CBA Method 3): 1.7 nM

Cc1cccc(C[C@@H]2NC(=O)[C@H](CC(=O)O)NC(=O)[C@H](Cc3ccc(OCC(=O)O)cc3)NC(=O)[C@H](CC3CCCCC3)NC(=O)CSC[C@@H](C(=O)N[C@@H](CCN)C(N)=O)NC(=O)[C@H](CCCN)NC(=O)[C@H](C(C)C)NC(=O)[C@H](Cc3cccc(CN)c3)NC(=O)[C@H](CCN)NC(=O)[C@@H](CC(C)C)NC(=O)[C@H](C)N(C)C(=O)[C@H](CCC(N)=O)NC(=O)[C@H](Cc3ccc(-c4ccccc4)cc3)NC(=O)[C@H](Cc3ccc(C(=O)O)cc3)NC2=O)c1 [Example 5188] ({CH2CO}-[Cha]Y(Carboxymethyl)D[Phe(3-Me)][Phe(4-COOH)][Bip]Q[NMeA][dL][Dab][Phe(3-CH2NH2)]V[Orn]C[Dab]-NH2; thioether N-14)
IC50 [1]: 50 nM

CC(=O)Nc1ccc(-c2ccc(C[C@@H]3NC(=O)[C@H](Cc4cccc(C)c4)NC(=O)[C@H](CC(=O)O)NC(=O)[C@H](Cc4ccc(C(=O)O)cc4)NC(=O)[C@H](CN4CCOCC4)NC(=O)CSC[C@@H](C(=O)N[C@@H](CCN)C(N)=O)NC(=O)[C@H](CCCC(N)=O)NC(=O)[C@H](C(C)C)NC(=O)[C@H](CC4CCCCC4)NC(=O)[C@H](CCN)NC(=O)[C@@H](CC(C)C)NC(=O)[C@H](C)N(C)C(=O)[C@H](Cc4ccc(C(=O)O)cc4)NC(=O)[C@H](Cc4ccc(-c5ccccc5)cc4)NC3=O)cc2)cc1 [Example 5257] ({CH2CO}-[Ala(morpholin-4-yl)][Phe(4-COOH)]D[Phe(3-Me)][Bip(4'-NHAc)][Bip][Phe(4-COOH)][NMeA][dL][Dab][Cha]V[Aad](NH2)C[Dab]-NH2; thioether N-14)
IC50 [1]: 30 nM

Cc1cccc(C[C@@H]2NC(=O)CSC[C@@H](C(=O)N[C@@H](CCN)C(N)=O)NC(=O)[C@H](CCCN)NC(=O)[C@H](C(C)C)NC(=O)[C@H](CC3CCCCC3)NC(=O)[C@H](CCN)NC(=O)[C@@H](CC(C)C)NC(=O)[C@H](C)N(C)C(=O)[C@H](CCC(N)=O)NC(=O)[C@H](Cc3ccc(-c4ccccc4)cc3)NC(=O)[C@H](Cc3ccc(C(=O)O)cc3)NC(=O)[C@H](Cc3cccc(C)c3)NC(=O)[C@H](CC(=O)O)NC(=O)[C@H](Cc3ccc(OCC(=O)O)cc3)NC2=O)c1 [Example 5273] ({CH2CO}-[Phe(3-Me)]Y(Carboxymethyl)D[Phe(3-Me)][Phe(4-COOH)][Bip]Q[NMeA][dL][Dab][Cha]V[Orn]C[Dab]-NH2; thioether N-14)
IC50 (nM, read-out: CBA Method 3): 0.5 nM

CCCC[C@@H]1NC(=O)CSC[C@@H](C(=O)N[C@@H](CCN)C(N)=O)NC(=O)[C@H](CCCN)NC(=O)[C@H](C(C)C)NC(=O)[C@H](CC2CCCCC2)NC(=O)[C@H](CCN)NC(=O)[C@@H](CC(C)C)NC(=O)[C@H](C)N(C)C(=O)[C@H](CCC(N)=O)NC(=O)[C@H](Cc2ccc(-c3ccccc3)cc2)NC(=O)[C@H](Cc2ccc(C(=O)O)cc2)NC(=O)[C@H](Cc2cccc(C)c2)NC(=O)[C@H](CC(=O)O)NC(=O)[C@H](Cc2ccc(OCC(=O)O)cc2)NC1=O [Example 5175] ({CH2CO}-[Nle]Y(Carboxymethyl)D[Phe(3-Me)][Phe(4-COOH)][Bip]Q[NMeA][dL][Dab][Cha]V[Orn]C[Dab]-NH2; thioether N-14)
IC50 [1]: 10 nM

CC(C)C[C@H]1NC(=O)[C@H](C)N(C)C(=O)[C@H](Cc2ccc(C(=O)O)cc2)NC(=O)[C@H](Cc2ccc(-c3ccccc3)cc2)NC(=O)[C@H](CCc2ccccc2)NC(=O)[C@H](Cc2cccc(C(F)(F)F)c2)NC(=O)[C@H](CC(=O)O)NC(=O)[C@H](Cc2ccc(C(=O)O)cc2)NC(=O)[C@H](CN2CCOCC2)NC(=O)CSC[C@@H](C(=O)N[C@@H](CCN)C(N)=O)NC(=O)[C@H](CCC(N)=O)NC(=O)[C@H](C(C)C)NC(=O)[C@H](CC2CCCCC2)NC(=O)[C@H](CCN)NC1=O [Example 5204] ({CH2CO}-[Ala(morpholin-4-yl)][Phe(4-COOH)]D[Phe(3-CF3)][hPhe][Bip][Phe(4-COOH)][NMeA][dL][Dab][Cha]VQC[Dab]-NH2; thioether N-14)
IC50 (nM, read-out: CBA Method 3): 6.5 nM
